# Laboratory results reported in ChEMBL document CHEMBL1201862, “PubChem BioAssay data set” (2004).
#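 The compound was tested at five concentrations on cells cultured in 96-well plates, with a 48-hour exposure period. GI50 marks 50% less growth.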 The source made the active and inactive calls. No stated cut-off is given here; in the data, active = GI50 up to about 1.1 µM and inactive = higher.
# How the values were obtained:
# Experiment in all cases: growth of human tumour cells (NCI), 48 h
# MDA-MB-231 = tested on: MDA-MB-231
# SK-MEL-28 = tested on: SK-MEL-28
# UACC-62 = tested on: UACC-62
# NCI-H226 = tested on: NCI-H226
# SNB-75 = tested on: SNB-75
# OVCAR-4 = tested on: OVCAR-4
# NCI/ADR-RES = tested on: NCI/ADR-RES
# A498 = tested on: A498
# SF-295 = tested on: SF-295
# A549 = tested on: A549
# UACC-257 = tested on: UACC-257
# MDA-MB-435 = tested on: MDA-MB-435
# UO-31 = tested on: UO-31
# COLO 205 = tested on: COLO 205
# OVCAR-8 = tested on: OVCAR-8
# T47D = tested on: T47D
# RPMI-8226 = tested on: RPMI-8226
# RXF 393 = tested on: RXF 393
# ACHN = tested on: ACHN
# OVCAR-3 = tested on: OVCAR-3
# HOP-62 = tested on: HOP-62
# HL-60 = tested on: HL-60
# NCI-H23 = tested on: NCI-H23
# MCF7 = tested on: MCF7
# DU-145 = tested on: DU-145
# HCT-15 = tested on: HCT-15
# LOX IMVI = tested on: LOX IMVI
# 786-0 = tested on: 786-0
# CCRF-CEM = tested on: CCRF-CEM
# OVCAR-5 = tested on: OVCAR-5
# NCI-H460 = tested on: NCI-H460
# SK-MEL-2 = tested on: SK-MEL-2
# MDA-N = tested on: MDA-N
# CAKI-1 = tested on: CAKI-1
# SK-MEL-5 = tested on: SK-MEL-5
# HOP-92 = tested on: HOP-92
# SK-OV-3 = tested on: SK-OV-3
# M14 = tested on: M14
# U-251 = tested on: U-251
# Hs-578T = tested on: Hs-578T
# EKVX = tested on: EKVX
# BT-549 = tested on: BT-549
# SR = tested on: SR
# HCT-116 = tested on: HCT-116
# NCI-H522 = tested on: NCI-H522
# Malme-3M = tested on: Malme-3M
# IGROV-1 = tested on: IGROV-1
# SNB-19 = tested on: SNB-19
# SN12C = tested on: SN12C
# MOLT-4 = tested on: MOLT-4
# K562 = tested on: K562
# SF-539 = tested on: SF-539
# HCC 2998 = tested on: HCC 2998
# PC-3 = tested on: PC-3
# SF-268 = tested on: SF-268
# SW-620 = tested on: SW-620
# TK-10 = tested on: TK-10
# KM12 = tested on: KM12
# HT-29 = tested on: HT-29
structure (smiles),measurement,setting,value
CCCC1(NC(=O)C(F)(F)F)CC(OC)OC2COC(c3ccccc3)OC21 (stereo not drawn),GI50,MDA-MB-231,95.1 µM (inactive)
same,GI50,SK-MEL-28,> 100 µM (inactive)
same,GI50,UACC-62,55.7 µM (inactive)
same,GI50,NCI-H226,> 100 µM (inactive)
same,GI50,SNB-75,> 100 µM (inactive)
same,GI50,OVCAR-4,6.25 µM (inactive)
same,GI50,NCI/ADR-RES,29.3 µM (inactive)
same,GI50,A498,> 100 µM (inactive)
same,GI50,SF-295,50.7 µM (inactive)
same,GI50,A549,28.3 µM (inactive)
same,GI50,UACC-257,63.1 µM (inactive)
same,GI50,MDA-MB-435,18.1 µM (inactive)
same,GI50,UO-31,35 µM (inactive)
same,GI50,COLO 205,21.1 µM (inactive)
same,GI50,OVCAR-8,51.1 µM (inactive)
same,GI50,T47D,59.4 µM (inactive)
same,GI50,RPMI-8226,> 10 µM (inactive)
same,GI50,RXF 393,94.6 µM (inactive)
same,GI50,ACHN,49.3 µM (inactive)
same,GI50,OVCAR-3,> 100 µM (inactive)
same,GI50,HOP-62,> 100 µM (inactive)
same,GI50,HL-60,27.1 µM (inactive)
same,GI50,NCI-H23,34.5 µM (inactive)
same,GI50,MCF7,30 µM (inactive)
same,GI50,DU-145,79.3 µM (inactive)
same,GI50,HCT-15,55.7 µM
same,GI50,LOX IMVI,64.9 µM (inactive)
same,GI50,786-0,76.2 µM (inactive)
same,GI50,CCRF-CEM,66.4 µM (inactive)
same,GI50,OVCAR-5,> 100 µM (inactive)
same,GI50,NCI-H460,34 µM (inactive)
same,GI50,SK-MEL-2,26.8 µM (inactive)
same,GI50,MDA-N,59.4 µM (inactive)
same,GI50,CAKI-1,6.31 µM (inactive)
same,GI50,SK-MEL-5,16.9 µM (inactive)
same,GI50,HOP-92,9.23 µM (inactive)
same,GI50,SK-OV-3,70 µM (inactive)
same,GI50,M14,26.8 µM (inactive)
same,GI50,U-251,46.7 µM (inactive)
same,GI50,Hs-578T,> 100 µM (inactive)
same,GI50,EKVX,36.3 µM (inactive)
same,GI50,BT-549,58.6 µM (inactive)
same,GI50,SR,24.8 µM (inactive)
same,GI50,HCT-116,42.1 µM (inactive)
same,GI50,NCI-H522,31.5 µM (inactive)
same,GI50,Malme-3M,44.7 µM (inactive)
same,GI50,IGROV-1,> 100 µM (inactive)
same,GI50,SNB-19,> 100 µM (inactive)
same,GI50,SN12C,> 100 µM (inactive)
same,GI50,MOLT-4,26.2 µM (inactive)
same,GI50,K562,35.3 µM (inactive)
same,GI50,SF-539,> 100 µM (inactive)
same,GI50,HCC 2998,52.2 µM (inactive)
same,GI50,PC-3,32 µM (inactive)
same,GI50,SF-268,> 100 µM (inactive)
same,GI50,SW-620,53 µM (inactive)
CC(=O)c1ccc2c(c1)CC1(C2)Cc2ccc3c(c2C1=O)CCC3 (stereo not drawn),GI50,MDA-MB-231,35.6 µM (inactive)
same,GI50,SK-MEL-28,20.3 µM (inactive)
same,GI50,UACC-62,22.1 µM (inactive)
same,GI50,NCI-H226,19 µM (inactive)
same,GI50,SNB-75,20 µM (inactive)
same,GI50,OVCAR-4,19.2 µM (inactive)
same,GI50,NCI/ADR-RES,20.1 µM (inactive)
same,GI50,A498,39.3 µM (inactive)
same,GI50,SF-295,31 µM (inactive)
same,GI50,TK-10,24 µM (inactive)
same,GI50,A549,23.4 µM (inactive)
same,GI50,UACC-257,10.8 µM (inactive)
same,GI50,MDA-MB-435,17.9 µM (inactive)
same,GI50,UO-31,28.4 µM (inactive)
same,GI50,COLO 205,18.3 µM (inactive)
same,GI50,T47D,12.5 µM (inactive)
same,GI50,RPMI-8226,16.1 µM (inactive)
same,GI50,RXF 393,24.7 µM (inactive)
same,GI50,ACHN,27.7 µM (inactive)
same,GI50,OVCAR-3,31 µM (inactive)
same,GI50,HOP-62,38.9 µM (inactive)
same,GI50,HL-60,8.26 µM (inactive)
same,GI50,NCI-H23,31.2 µM (inactive)
same,GI50,MCF7,22.5 µM (inactive)
same,GI50,DU-145,31.3 µM (inactive)
same,GI50,HCT-15,25 µM
same,GI50,LOX IMVI,24.5 µM (inactive)
same,GI50,KM12,28.2 µM (inactive)
same,GI50,786-0,17.6 µM (inactive)
same,GI50,CCRF-CEM,24.3 µM (inactive)
same,GI50,OVCAR-5,36.8 µM (inactive)
same,GI50,NCI-H460,29.3 µM (inactive)
same,GI50,SK-MEL-2,17.1 µM (inactive)
same,GI50,HT-29,15.2 µM (inactive)
same,GI50,MDA-N,21.8 µM (inactive)
same,GI50,CAKI-1,23.2 µM (inactive)
same,GI50,SK-MEL-5,13.3 µM (inactive)
same,GI50,HOP-92,14.2 µM (inactive)
same,GI50,SK-OV-3,34.9 µM (inactive)
same,GI50,M14,20 µM (inactive)
same,GI50,U-251,34.8 µM (inactive)
same,GI50,Hs-578T,31.5 µM (inactive)
same,GI50,BT-549,27.9 µM (inactive)
same,GI50,SR,65.5 µM (inactive)
same,GI50,HCT-116,28.3 µM (inactive)
same,GI50,NCI-H522,19.1 µM (inactive)
same,GI50,Malme-3M,18 µM (inactive)
same,GI50,IGROV-1,55.2 µM (inactive)
same,GI50,SNB-19,53.1 µM (inactive)
same,GI50,SN12C,31.8 µM (inactive)
same,GI50,MOLT-4,14.9 µM (inactive)
same,GI50,K562,15 µM (inactive)
same,GI50,SF-539,27.7 µM (inactive)
same,GI50,HCC 2998,15 µM (inactive)
same,GI50,PC-3,21.6 µM (inactive)
same,GI50,SF-268,31.2 µM (inactive)
same,GI50,SW-620,41 µM (inactive)
